{"source": "patent US20130171161A1", "about": "“METHOD AND COMPOSITION FOR THE TREATMENT OF DISEASES CAUSED BY OR ASSOCIATED WITH HIV” (priority 2010, published 2013)", "key": {"HIV-1 LAI [1]": {"test_system": "HIV-1 LAI", "assay": "Inhibition of HIV replication (p24 level) in human peripheral blood mononuclear cells infected in vitro, Example 1", "type": "cell-based", "conditions": "Human immunodeficiency virus 1, PBMC; 1000 nM added 24 hours before infection; day 7; read-out: inhibition of HIV replication (p24 in supernatant)", "protocol": "The assessment of antiretroviral activity of ultra low-dose of rabbit polyclonal antibodies to CD4 receptor (a mixture of homoeopathic dilutions C12+C30+C50) (ULD Ab CD4)), was carried out using human peripheral blood mononuclear cells infected with the strain HIV-1 LAI in vitro.\nHuman peripheral blood mononuclear cells were isolated from blood of a seronegative healthy donor by centrifugation on a Ficoll-Hypaque density gradient. The cells were stimulated for 3 days with 1 μg/mL of phytohemagglutinin P and 5 IU/mL of recombinant human interleukin-2.\nIn order to assess antiretroviral activity the products were placed in a well containing 100 μL of activated mononuclears 24 hours before or 15 min after cell infection with the strain HIV-1-LAI at the dose of 100 TCID50 (50 μL inoculum of the strain HIV-1-LAI). Before adding to a well, ULD Ab CD4 (12.5 μL) or reference azidotimidine (1000 nM) were mixed with RPMI1640 medium (DIFCO) to achieve a final probe volume of 50 μL\nThe supernatant fluids were collected on day 7 after infection of cells. The products' activity was measured by the inhibition of HIV replication which was assessed by the level of core nucleocapsid protein p24 in the supernatant fluid from human peripheral blood mononuclear cells using Retrotek Elisa kit."}, "HIV-1 LAI [2]": {"test_system": "HIV-1 LAI", "assay": "Inhibition of HIV-reverse transcriptase activity in supernatant of infected human peripheral blood mononuclear cells, Example 2", "type": "cell-based", "conditions": "8 nM; added 15-30 minutes after infection", "protocol": "The assessment of antiretroviral activity of ultra low-dose rabbit polyclonal antibodies to CD4 (a mixture of homoeopathic dilutions C12+C30+C50) (hereinafter referred to as “ultra low-dose antibodies to CD4) was carried out using human peripheral blood mononuclear cells infected with the strain HIV-1 LAI in vitro. Azidothymidine (Sigma—AZ169-100 mg, lot 107K1578) was used as a comparator product.\nHuman peripheral blood mononuclear cells were isolated from blood of a seronegative healthy donor by centrifugation on a Ficoll-Hypaque density gradient. The cells were stimulated for 3 days with 1 μg/mL of phytohemagglutinin P and 5 IU/mL of recombinant human interleukin-2 in RPMI1640 (DIFCO) medium supplemented with 10% fetal calf serum (the complement was removed by heating for 45 minutes at 56° C.), 1% antibiotic solution (PSN Gibco containing 50 μg/mL of penicillin, 50 μg/mL of streptomycin and 100 μg/mL of neomycin). […]\nThe products' efficiency was established by the inhibition of HIV replication which was assessed by HIV-reverse transcriptase activity in the supernatant fluid from human peripheral blood mononuclear cells using the HIV RT RetroSys kit made by INNOVAGEN (Lot 10-059C). […]"}, "HIV-strain-1-LAI": {"test_system": "HIV-strain-1-LAI", "assay": "Inhibition of HIV replication (p24 content) in infected mononuclear cells of human blood, Example 3", "type": "cell-based, HIV-1", "conditions": "1000 nM, day 7, read-out: inhibition of HIV reaction (p24 in supernatant)", "description": "The experimental study involved the affine purified rabbit polyclonal antibodies to the human IFN-gamma. The affine purified rabbit polyclonal antibodies to the human gamma interferon were used for development of the (potentiated) antibodies to the gamma interferon in a very-low-dose in the form of serial dilutions C12+C30+C50, obtained in accordance with a homeopathic technology (hereinafter referred to as Ab to IFN-γ in VLD).\nAntiviral activity of the composition under review Ab to IFN-γ in VLD and azidothymidine (preparation, based on an active substance of Zidovudine) was studied within the context of mononuclear cells of the human blood, infected in vitro with the HIV-strain-1-LAI. The efficiency of replicating inhibition of HIV was assessed according to the content of a main nucleocapsid protein p24 HIV in the supernatant fluid of the mononuclear cells of the human peripheral blood. […]\nSupernatant fluid of the cell culture was collected on the seventh (7) day subsequent to the contamination. The efficiency of the preparations was assessed according to the inhibition of HIV reaction, in its turn assessed in accordance with the content of a main nucleocapsid protein p24 HIV in the supernatant cells by method of IFA, immunofluorescent assay (Retrotek Elisa kit)."}}, "note": "Where two headings read alike, the source gives them in different places.", "data": [{"smiles": "Cc1cn([C@H]2C[C@H](N=[N+]=[N-])[C@@H](CO)O2)c(=O)[nH]c1=O", "note": "[Azidothymidine]", "values": [{"measurement": "inhibition at 1 µM", "setting": "HIV-1 LAI [1]", "result": 99, "unit": "%"}, {"measurement": "Inhibition of HIV-reverse transcriptase activity (% of control) Day 7", "setting": "HIV-1 LAI [2]", "result": "58 ± 7 % of control"}, {"measurement": "inhibition at 1 µM", "setting": "HIV-strain-1-LAI; Human immunodeficiency virus 1, 168 h, introduced 24 prior to contamination", "result": 99, "unit": "%"}, {"measurement": "inhibition at 1 µM", "setting": "HIV-strain-1-LAI; Human immunodeficiency virus 1, introduced 15 minutes after contamination", "result": "99 ± 1", "unit": "%"}]}]}
